# Assay results published in PubChem BioAssay (NCI).
# Several values for one entry are separate records, joined by “and”; a condition that tells them apart may be missing. Identical values can stand only once.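 48-hour exposure; five concentrations; linearly interpolated endpoints. The concentration for 50% growth inhibition is given as GI50. TGI is the concentration that stops growth completely.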
# Tests used:
# Experiment in all cases: DTP human tumour cell line panel, 48 h
# [1] = tested on: UACC-257 melanoma
# [2] = tested on: M14 melanoma
# [3] = tested on: SK-MEL-5 melanoma
# [4] = tested on: ACHN renal
# [5] = tested on: SK-MEL-28 melanoma
# [6] = tested on: HT29 colon
# [7] = tested on: 786-0 renal
# [8] = tested on: IGROV1 ovarian
# [9] = tested on: HCC-2998 colon
# [10] = tested on: UO-31 renal
# [11] = tested on: OVCAR-8 ovarian
# [12] = tested on: A498 renal
# [13] = tested on: M19-MEL melanoma
# [14] = tested on: SW-620 colon
# [15] = tested on: LOX IMVI melanoma
# [16] = tested on: EKVX NSCLC
# [17] = tested on: UACC-62 melanoma
# [18] = tested on: SF-295 CNS
# [19] = tested on: HOP-18 NSCLC
# [20] = tested on: SNB-78 CNS
# [21] = tested on: HOP-92 NSCLC
# [22] = tested on: SF-268 CNS
# [23] = tested on: A549 NSCLC
# [24] = tested on: LXFL 529 NSCLC
# [25] = tested on: SF-539 CNS
# [26] = tested on: COLO 205 colon
# [27] = tested on: RPMI-8226 leukemia
# [28] = tested on: CAKI-1 renal
# [29] = tested on: SN12C renal
# [30] = tested on: NCI-H23 lung
# [31] = tested on: RXF 393 renal
# [32] = tested on: KM20L2 colon
# [33] = tested on: K-562 leukemia
# [34] = tested on: SK-MEL-2 melanoma
# [35] = tested on: HCT-15 colon
# [36] = tested on: HCT-116 colon
# [37] = tested on: XF 498 CNS
# [38] = tested on: TK-10 renal
# [39] = tested on: NCI-H460 lung
# [40] = tested on: MOLT-4 leukemia
# [41] = tested on: SK-OV-3 ovarian
# [42] = tested on: DMS 273 small cell lung
# [43] = tested on: RXF-631 renal
# [44] = tested on: HOP-62 NSCLC
# [45] = tested on: KM12 colon
# [46] = tested on: OVCAR-4 ovarian
# [47] = tested on: DMS 114 small cell lung
# [48] = tested on: MALME-3M melanoma
# [49] = tested on: SNB-19 CNS
# [50] = tested on: DLD-1 colon
# [51] = tested on: OVCAR-5 ovarian
# [52] = tested on: SNB-75 CNS
# [53] = tested on: NCI-H522 lung
# [54] = tested on: NCI-H226 lung
# [55] = tested on: U251 CNS
# [56] = tested on: CCRF-CEM leukemia
# [57] = tested on: HL-60(TB) leukemia
# [58] = tested on: OVCAR-3 ovarian
smiles,measurement,setting,value
Cc1cc(Cl)cc2c1NC(=O)C2(O)C(C(=O)c1ccccc1)c1ccccc1 (stereo not drawn),GI50,[1],57 µM and 19.9 µM
same,TGI,[1],> 100 µM and 52.1 µM
same,GI50,[2],90.9 µM and 22.6 µM
same,TGI,[2],> 100 µM and 55.5 µM
same,TGI,[3],45.4 µM
same,GI50,[4],43 µM and 18.8 µM
same,TGI,[4],> 100 µM and 40.6 µM
same,GI50,[5],96.6 µM and 24.5 µM
same,TGI,[5],> 100 µM and 51 µM
same,TGI,[6],> 100 µM
same,GI50,[7],38.2 µM and 12.9 µM
same,TGI,[7],> 100 µM and 29.3 µM
same,TGI,[8],83 µM
same,TGI,[9],> 100 µM and 60.4 µM
same,GI50,[10],67.6 µM and 27.3 µM
same,TGI,[10],> 100 µM and 48.4 µM
same,GI50,[11],> 100 µM and 32.5 µM
same,TGI,[11],> 100 µM
same,TGI,[12],65.7 µM
same,TGI,[13],10 µM
same,TGI,[14],> 100 µM
same,TGI,[15],> 100 µM and 46.1 µM
same,TGI,[16],> 100 µM
same,TGI,[17],33.3 µM
same,TGI,[18],> 100 µM
same,GI50,[19],> 100 µM and 22 µM
same,TGI,[19],> 100 µM and 95.7 µM
same,TGI,[20],> 100 µM
same,GI50,[21],17.2 µM and 43.3 µM
same,TGI,[21],78.7 µM and > 100 µM
same,GI50,[22],84.3 µM and 34.8 µM
same,TGI,[22],> 100 µM and 95.3 µM
same,GI50,[23],97.1 µM and 22.6 µM
same,TGI,[23],> 100 µM and 51.5 µM
same,GI50,[24],56.2 µM and 24 µM
same,TGI,[24],> 100 µM and 72.8 µM
same,TGI,[25],39.7 µM
same,GI50,[26],> 100 µM and 15.2 µM
same,TGI,[26],> 100 µM and 30 µM
same,TGI,[27],64.5 µM and 42.4 µM
same,GI50,[28],35.7 µM and > 100 µM
same,TGI,[28],> 100 µM
same,GI50,[29],> 100 µM and 14.9 µM
same,TGI,[29],> 100 µM and 38.6 µM
same,TGI,[30],> 100 µM
same,GI50,[31],38 µM and 16.2 µM
same,TGI,[31],86.1 µM and 31.7 µM
same,TGI,[32],> 100 µM
same,TGI,[33],> 100 µM
same,TGI,[34],> 100 µM
same,TGI,[35],> 100 µM
same,TGI,[36],79.3 µM
same,TGI,[37],82.7 µM and > 100 µM
same,TGI,[38],> 100 µM
same,GI50,[39],> 100 µM and 36.9 µM
same,TGI,[39],> 100 µM
same,TGI,[40],70.9 µM
same,TGI,[41],> 100 µM
same,TGI,[42],> 100 µM
same,TGI,[43],> 100 µM
same,TGI,[44],> 100 µM
same,TGI,[45],> 100 µM
same,TGI,[46],> 100 µM and 40 µM
same,TGI,[47],85.7 µM and 45.8 µM
same,GI50,[48],91.5 µM and 22.7 µM
same,TGI,[48],> 100 µM and 49.2 µM
same,TGI,[49],> 100 µM
same,TGI,[50],> 100 µM
same,TGI,[51],> 100 µM
same,TGI,[52],83.2 µM and 60.7 µM
same,TGI,[53],> 100 µM
same,TGI,[54],> 100 µM and 58.3 µM
same,GI50,[55],> 100 µM and 31.1 µM
same,TGI,[55],> 100 µM
same,TGI,[56],81.5 µM
same,TGI,[57],52.1 µM
same,GI50,[58],53 µM and 22.4 µM
same,TGI,[58],> 100 µM and 54.1 µM
